“Also recorded” adds a separate entry of the source.
Experiments:
[1] = test system: primary human keratinocytes; test: 2D coculture of c-jun −/− c-JunER™ fibroblasts with primary human keratinocytes; format: cell-based; details: 100 nM every 12 hours, three days, immunofluorescence
Description: The corresponding controls remained untreated.

[2] = test system: keratinocytes (epithelial formation and differentiation); test: organotypical cultures with c-jun −/− fibroblasts, application of cytokines; format: cell-based, human; details: for phenotype obtained in organotypical cultures with c-jun −/−: FIG. 6
Description: Type 1 collagen was prepared from rat tail tendons and provided at a concentration of 4 mg/ml in 0.1% acetic acid as rdady-to-use solution (Smola et al., 1993). The collagen gels used consisted of 80% by volume of 4 mg/ml collagen in 0.1% acetic acid, 10% by volume Hank's salt solution (concentrated tenfold) and 10% by volume FCS with or without cells (2×10^5 cells/ml). The liquid collagen was admixed with Hank's solution on ice and neutralized with 5 M NaOH with stirring (trypsinated cells taken up in FCS can then be added to the collagen solution by stirring). The gel solution was poured into cell culture dishes or 2.5 ml each into filter inserts (3 μm pore size, Becton Dickinson, Heidelberg, Germany) and allowed to stay in an incubator to form a gel for 1 hour. Sterile glass rings having an internal diameter of 18 mm (1.5 mm wall thickness, 12 mm height) were placed onto the gels and slightly pressed thereon. Following 1 h in the incubator, the collagen gels were equilibrated in DMEM with 10% FCS. After 24 h, the medium was withdrawn from the glass rings and 1 ml keratinocyte suspension (9×10^5 cells/ml FAD) each were seeded into the glass ring interior. After 24 h of incubation, the medium was removed from the keratinocytes so as to expose the cells to air. This time was defined as day 0 of the organotypcial cultures. DMEM having 10% FCS was exchanged every other day, the medium level in this case bordering on the top gel rim. For histological or immunohistochemical processing, the cultures were fixed or frozen. In order to detect proliferating cells in a culture by immunohistochemical methods, the cultures BrdU (Sigma) were added to the medium at a concentration of 65 μM 12 h prior to fixing.
2D cocultures on plastic dishes or glass slides or in 3D form as organotypical cultures were incubated in corresponding standard medium for 24 h. Thereafter, medium enriched with cytokines was added and the cultures were incubated therewith depending on the experiment for several hours or days, the medium being changed with factor added every other day. Supplier of the growth factors and antibodies: KGF (BTS, St. Leon, Germany); anti-GM-CSF, polyclonal, neutralizing (R&D-Systems, Wiesbaden, Germany); GM-CSF (Boehringer Mannheim, Germany) and anti-KGF, monoclonal, neutralizing (R&D-Systems).
In the case of monolayer cultures of adherent cells, the medium was withdrawn from the cells and the cells were fixed on the glass slides in 80% methanol for 5 min. and 100% acetone for 3 min. The slides were then dried and stored at −40° C. For the production of paraffin preparations, organotypical cocultures or skin biopsies wee fixed in 3.5% formaldehyde (in PBS+) for at least 24 h, and initially embedded in agar and then in paraffin (Medim, Vogel company, GieβSen, Germany). The preparations were cut into 2 μm sections which were stained histologically with hematoxylin (15 min.) and eosin (5 min.). Following deparaffinization it was also possible to use the paraffin sections for immunohistochemical analyses. For the production of frozen preparations, skin samples or organotypical cocultures were frozen on cork platelets in embedding gel (“Tissue Teck”, O.C.T., Frankfurt, Germany) on liquid nitrogen. The preparations were stored at −80° C. 5-μm sections were prepared using a freezing microtome, placed onto silanized slides and used for immunohistochemical analyses.
Paraffin sections were deparaffinized in a descending alcohol series and rinsed in PBS. Thereafter, the epitopes on the tissue sections were made accessible by boiling the sections in “Tuf” solution for 5 min. (Advanced Biotechnologies, Hamburg, Germany) and 0.1% trypsin at 37° C. or microwave treatment in 0.1 M citrate buffer for 30 min. Freeze sections were fixed in 80% methanol for 5 min., then in acetone for 2 min. For detecting the incorporation of BrdU (proliferation assay), the sections were incubated in 1.5 M HCI for 10 min. to denature the DNA strands. […]

With CC/C(=C(\c1ccc(O)cc1)c1ccc(OCCN(C)C)cc1)c1ccccc1 [4-OH-tamoxifen] the “enhanced expression of the differentiation marker K1/K10” value [1] was “can be eliminated again”.

“GM-CSF: cytokine GM-CSF (Boehringer Mannheim, Germany)” was tested, and the “phenotype obtained in organotypical cultures with c-jun −/−” value [2] was “can partially be reversed”, the K1/K10 expression ([2]; c-jun −/− fibroblasts) was “expressed late” and the “differentiation status of the epithelium” value ([2]; c-jun −/− fibroblasts) was “does not correspond to the normal condition”. The epithelial formation ([2]; c-jun −/− fibroblasts) was “eliminates the reduced epithelial formation; also recorded: effects an enhanced epithelial formation”, the “loricrin expression (timing)” value ([2]; c-jun −/− fibroblasts) was “expressed prematurely” and the “transglutaminase, filaggrin and loricrin expression” value ([2]; c-jun −/− fibroblasts) was “expressed enhancedly”.

B1: KGF: cytokine / growth factor KGF (BTS, St. Leon, Germany) (protein, UniProt P21781 32-194, looked up)
Fibroblast growth factor 7: CNDMTPEQMATNVNCSSPERHTRSYDYMEGGDIRVRRLFCRTQWYLRIDKRGKVKGTQEMKNNYNIMEIRTVAVGIVAIKGVESEFYLAMNKEGKLYAKKECNEDCNFKELILENHYNTYASAKWTHNGGEMFVALNQKGIPVRGKKTKKEQKTAHFLPMAIT
For B1, the “phenotype obtained in organotypical cultures with c-jun −/−” value [2] was “can partially be reversed”, the “differentiation status of the epithelium” value ([2]; c-jun −/− fibroblasts) was “the full differentiation status is not restored” and the epithelial formation ([2]; c-jun −/− fibroblasts) was “eliminates the reduced epithelial formation”. The “granular layer and expression of the differentiation markers filaggrin and loricrin” value ([2]; c-jun −/− fibroblasts, histology) was “lack”.

Reference: patent US6846674B2, “Genetically modified fibroblast cells” (Deutsche Krebsforschungszentrum Stiftung des Offentlichen …, priority 2000, dated 2005)
